SMILES	melting point
COC(=O)COc1ccc(-c2ccc[nH]2)cc1	136 to 137 °C
CNCC(O)COc1cc(-c2ccc(OC)cc2)nc2cc(C)ccc12 (racemic)	140 to 142 °C
COC(=O)Cc1nc(-c2ccc(Cl)cc2)oc1Oc1cccc([N+](=O)[O-])c1	97 to 99 °C
Cc1ccc2c(c1)c1c(n2Cc2ccccc2)CCCC1=O	179 to 180 °C
O=C(CCl)c1cc2c(s1)SCCc1cc(=O)n(-c3ccc(Cl)cc3)nc1-2	178 to 180 °C
CC(=O)C1CCC2C3CCC4CC(O)C(C)CC4(C)C3C(=O)CC12C (configuration not stated)	142 to 146 °C
CNC(=O)c1ccc(C=CC(=O)NCC(=O)N(C)c2ccc(C)c(CO)c2C)cc1	261 to 263 °C
CCC(=CC(CNC(=O)c1ccncn1)=NO)C(C)[N+](=O)[O-] (configuration not stated)	150 to 152 °C
CCCn1c(=O)c2c(nc(CO)n2C)n(CCC)c1=O	111 to 112 °C
OCc1nc2n(c1CO)-c1ccc(Cl)cc1C(c1ccccc1F)=NC2	222 °C
CC(C)(C)OC(=O)N1C[C@@H]([C@H](O)CO)CC1=O	92 to 94 °C
Brc1c[nH]c(CN2CCCC2)c1	96 to 99 °C
COc1ccc2c(c1[N+](=O)[O-])CN(C(=O)C(F)(F)F)CC(=O)N2C	71 to 74 °C
Cc1cc(=O)n(-c2cc(OC(C)C)c(C)cc2F)c(=O)o1	122 to 124 °C
CCOC(=O)c1cc2cc(-c3ccccc3)ccc2o1	109 to 110 °C
O=C(OC1CCCCC1)C1Oc2ccccc2Cc2ccccc2O1	120 to 125 °C
CCCN1CCC(Cc2ccc3c(c2)c(Cc2ccc(C(=O)O)cc2OC)cn3CCC)C1=O (configuration not stated)	75 to 86 °C
CC(=O)c1cccc(-c2cnn3c(-c4cccc(NC(=O)CC(C)C)c4)ccnc23)c1	190 to 192 °C
CCOC(=O)NC(=O)C(C#N)=CNc1c(Cl)cc(Cl)cc1Cl	245 to 247 °C
COCCNC(N)=Nc1ccccc1N1CCOCC1	125 to 128 °C
CCC(=O)Nc1cccc(NC(=O)CC(C)=O)c1	70 °C
COC(=O)c1cc(C(=O)c2nc(Br)c3ccccn23)ccc1N	230 °C
Cc1ccc(C2c3c(C)c(N)c(C)c(C)c3OC2(C)C)cc1 (configuration not stated)	91 to 92 °C
COC(=O)c1ccc(-c2coc3ccc(-c4nnc(C)o4)cc23)cc1	208 to 209 °C
CC(F)(F)c1cccc(C[C@H]2NC(=O)O[C@H]2c2ccc(F)cc2)c1 (racemic)	143 to 144 °C
CCCS(=O)C1(S(=O)(=O)NC(C)(C)C)C=CC=CN1 (configuration not stated)	138 to 140 °C

SMILES	melting point
Cc1cccc(C(NCC(=O)Nc2c(C(C)C)cccc2C(C)C)c2ccccc2)c1 (configuration not stated)	119 to 120 °C
CN(C(=O)CN1C(=O)c2ccccc2S1(=O)=O)c1ccccc1	205 to 206 °C
CC(C)(C)C(=O)Nc1nc(O)c2cc(C=CCOC3CCCCO3)cnc2n1 (configuration not stated)	166 to 167 °C
[N-]=[N+]=NC1(c2nc(N)nc(N)n2)C=CC(c2ccccc2)=CC1 (configuration not stated)	230 °C
COc1cc(OC)nc(Cc2nscc2C(=O)N(C)c2ccccc2)n1	92 to 93 °C
COC(=O)c1nc(Cl)c(Cl)c(Cl)c1I	61 to 62 °C
Cc1oc(-c2cccs2)nc1COc1ccc(Cn2cc(CCC(=O)O)c(-c3ccccc3)n2)cc1	159 to 160 °C
CCCn1c(=O)c(C#N)c(N2CCN(C(=O)c3cccs3)CC2)c2cccnc21	196 °C
CC1(C)OC(=S)Nc2ccc(-c3ccccc3Cl)cc21	171 to 172 °C
c1ccc(CSc2cn3ccsc3n2)cc1	76 to 77 °C
CC(C)N(Cc1cccs1)C(=O)C12CC3CC(CC(C3)C1)C2	156 to 158 °C
CC(C)(C)OC(=O)Nc1ccc(I)cc1NC(=O)CC(=O)c1cccc(C#N)c1	182 to 183 °C
CC(C)Cn1nc(OCCCc2ccc(OC(C)C)cc2Oc2ncc(C(F)(F)F)cc2Cl)cc1CCC(=O)O	71 to 73 °C
Cc1c(-c2ccc(=O)[nH]c2)cccc1[N+](=O)[O-]	214 to 216 °C
CCOC(=O)c1cnn(CC(O)c2ccccc2)c1NC(=S)NC(=O)c1ccccc1 (configuration not stated)	171 to 172 °C
CSC1NC(=O)N(c2cccc(C(F)(F)F)c2)C(=O)N1	225 to 228 °C
COc1ccc2sc(Nc3ccc(OCCN4CCCC4)cc3)nc2c1	167 to 168 °C
N[C@@H](CCC(=O)NCCS(=O)(=O)O)C(=O)O	202 to 204 °C
CNC(=O)ON=C1N=C(C2CCCCC2)C(C)(C)S1	158 to 160 °C
N#Cc1ccc(N2CCC(c3ccccc3)CC2)cc1	167 to 169 °C
CCCCC[C@@H](CNC(=O)Nc1c(N2CCCC2)ncnc1N1CCCC1)c1cccc2c1OCO2	199 to 200 °C
COc1cc(OC)nc(O[C@@H]2CCCC[C@H]2C(=O)NS(=O)(=O)c2ccccc2)n1 (relative stereo)	175 °C
CNn1c(C)nn(C(=O)NC(C)(C)CCc2ccccc2)c1=O	102 °C
COc1ccc(-c2nc(C#N)cn2-c2ccc(OC)cc2)cc1	132 to 134 °C
CC1(C)CCC(C)(C)c2cc(C(C(=O)O)C(=O)Nc3ccc(C(=O)O)cc3)ccc21 (configuration not stated)	213 to 214 °C
CC(C)C[C@H](NC(=O)CCOc1ccccc1)C(=O)N[C@@H](C(C)C)[C@@H](O)c1c(-c2ccccc2)c1=O	92 to 95 °C

SMILES	melting point
COc1ccc([C@@H](CC(N)=O)N2Cc3ccccc3C2=O)cc1OC	191 to 193 °C
COc1ccc2c3c([nH]c2c1)C(=S)C(CC1CCN(C(=O)OC(C)(C)C)CC1)C3 (configuration not stated)	188 to 189 °C
CC(=O)NC(CO)CCc1ccc(Sc2cccc(OCc3ccccc3)c2)cc1Cl (configuration not stated)	78 to 81 °C
COc1ccc(N2CCN(c3c(C)c(C)c4c(c3C)C(O)C(C)(C)O4)CC2)cc1 (configuration not stated)	159 to 161 °C
CC(C)c1ccc(N(Cc2ccc(F)cc2)C(=O)Nc2c(C(C)C)cccc2C(C)C)cc1	80 °C
CN1C(=O)CN=C(c2cccc(Cl)c2)c2cc(C(O)(c3ccc(Cl)cc3)c3cncn3C)ccc21 (configuration not stated)	226 °C
N#CC=Cc1cccc(Br)c1	62 °C
CCc1nc(OC)c(NC(=O)N2CCN(c3cc(OC)c(OC)c(OC)c3)CC2)cc1C(=O)Nc1cc(CO)cc(Nc2c3ccccc3nc3ccccc23)c1	190 to 192 °C
Cc1nc(-c2ccncn2)cc(=O)[nH]1	320 to 322 °C
COc1cc(Nc2nccc(-c3ccc4ccccc4c3)n2)cc(OC)c1OC	156 °C
CCOC(=O)CN(C)C(=O)c1ccn2c1CNc1ccccc1C2	147 to 148 °C
COc1ccc(-n2nc(C(F)F)cc2-c2ccc(S(C)(=O)=O)cc2)cc1	135 °C
CCCc1c2c(c(OC)c3c(=O)cc(C(=O)OC)oc13)CCCC2	92 to 93 °C
COC(=O)C=Cc1cc(O)cc2cc(-c3ccc(O)cc3)oc12	231 to 234 °C
OC(CCCc1cccnc1)COc1ccc(C=Cc2ccccc2)cc1 (configuration not stated)	110 to 111 °C
CCOC(=O)C(=O)c1cccc(NC=O)n1	124 to 126 °C
CCN(CC)C(=O)C(C)(C)C(=O)O	110 to 112 °C
O=C(NCc1ncc(Cl)cc1Cl)c1c(Cl)cccc1Cl	161 to 165 °C
CC(C)N(CCN1C(=O)/C(=N/NC(=O)NC2CCCCC2)c2cc(Br)ccc21)C(C)C	155 to 156 °C
O=C1[C@@H]2Cc3ccccc3CN2C(=O)N1c1cc(Cl)cc(Cl)c1	243 °C
CC1CN(c2nc3ccccc3s2)N=C1N (configuration not stated)	207 to 209 °C
COc1ccc(C2CCc3cc(Br)ccc3O2)cc1 (configuration not stated)	121 to 123 °C
CCOC(=O)c1ccc(CC(=O)Nc2csc3nc(C(=O)NCc4cccc(OC)c4)[nH]c(=O)c23)cc1	218 to 219 °C
NNC(=S)c1ccc2ccccc2c1	166 to 167 °C
CCCOC1(c2ccc(C)cc2C)N=C(c2ccc(C)cc2C)N=CN1 (configuration not stated)	86 to 88 °C
Cc1cc(-c2noc(C(F)(F)F)n2)cc(C)c1OCCCc1ccc(CCl)nc1	79 to 81 °C

SMILES	melting point
O=S1(=O)N=CN(C2CC2)c2cc(Cl)c(F)cc21	205 to 206 °C
COC(=O)C=C1SC(Nc2c(Cl)cccc2Cl)=NC1=O	189 to 190 °C
Cc1ccccc1C=CCN1CCc2nc(N)sc2CC1	112 to 115 °C
NC(C=Cc1cccc(Cl)c1)=NO	195 to 197 °C
CCN(C(=O)NS(=O)(=O)c1ccccc1)c1ccc(Cl)cc1	145 to 146 °C
CS(=O)(=O)c1ccc(-n2cncc2-c2ccc(F)cc2F)cc1	119 °C
CN(NC(=O)OC(C)(C)C)C(=O)C(C)(C)ON=C(C(=O)O)c1csc(N)n1	145 °C
CCc1cn(C2CC(OCc3ccccc3)C(CNC(=O)Cc3c(Cl)cccc3Cl)O2)c(=O)[nH]c1=O (configuration not stated)	174 to 177 °C
COc1ccc(Cn2ncc3c4c(cnc32)C(=O)NC4=O)cc1	196 to 197 °C
C=CCOC(=O)C(=[N+]=[N-])C(=O)CC1CC(=O)N1 (configuration not stated)	83 °C
Cc1nc(N2CCN(Cc3ccc(C(F)F)o3)C2=O)sc1C(=O)NCc1cccnc1	142 to 143 °C
O=C(O)CCC(=O)c1ccc2[nH]c3nc(Cl)ccc3c2c1	281 °C
CC(=O)NCCC1CCc2ccn3nc(C)c(C)c3c21 (configuration not stated)	134 to 135 °C
C(=C1c2ccccc2-c2ccccc21)c1nc(COc2ccc(CCCn3ccnc3)cc2)co1	116 to 117 °C
N=C(N)c1ccc2cc(OC(=O)C3CC3)ccc2c1	214 to 217 °C
COP(=O)(Cc1cccc2cccc(CP(=O)(OC)OC)c12)OC	168 to 170 °C
CNC(C(=O)O)c1ccc(Cl)cc1 (configuration not stated)	208 to 213 °C
CCOC(=O)c1nnc2ccc(C(C)=O)cc2c1O	250 to 252 °C
CCCC/C=C\c1c([C@H](O)[C@H](CCCC)NC(=O)[C@H](CC(C)C)NC(=O)OCC2CCCCC2)c1=O	138 to 140 °C
CC(CCC(=O)Cl)C1CCC2C3CCC4CCCCC4(C)C3CCC12C (configuration not stated)	104 to 106 °C
COc1ccc2c(c1)CC(=O)N2N	136 to 138 °C
O=S(=O)(c1c(-c2ccc(Cl)cc2)[nH]c(Br)c1Br)C(F)(F)C(F)F	138 to 141 °C
CCCCCCCCc1ccc(CCC(CC)(CCOC(C)=O)NC(C)=O)cc1 (configuration not stated)	108 to 110 °C
CC(=O)OC1CSC(Oc2cncc(Br)c2)C(OC(C)=O)C1OC(C)=O (configuration not stated)	174 °C

Reference: a melting point compilation (Tetko et al.; mined from patent text by program, amines drawn as free bases though some values may be those of a salt)
